Reference: EP2161029A1, “Composition comprising peptides” (Unilever N.V., priority 2008, dated 2010)
Peptide text beside a SMILES is read from it.

Experimental: The pH of simulated gastric fluid (SGF, 0.15 M NaCl, pH 2.5) was increased to 7.5 with […] (40 mM), and the following compounds were added to adjust the pH to 6.8 and simulate a duodenal-jejunal environment and create simulated small intestinal fluid (SIF): (i) a bile salt mixture containing equimolar quantities (0.125 M) of sodium taurocholate and glycodeoxycholic acid in NaHC03 (1 M), (ii) solutions of pancreatin from porcine pancreas (9 mg/mL) in water was prepared and added at approximately physiological ratios. The pH was adjusted to 6.8 with HCl (0.1 M). Peptides were dissolved in SIF at a final peptide concentration of 50 µM. Aliquots (1 mL) were prepared for sampling at different time points. Simulated intestinal digestion was carried out at 37°C, and aliquots (1 mL) were taken at 0, 5, 15, and 60 min after the start of the experiment. After peptide hydrolysis, digestive enzymes were inactivated at 95°C for 15 min and samples were cooled immediately on ice water and stored at -20 °C until further analysis.
Quantification of dipeptides derived from digestion were performed using a liquid chromatography multiple reaction ion monitoring-mass spectrometry (LC-MRM-MS) method as described van Platerink CJ, Janssen HG, Horsten R, Haverkamp J. Quantification of ACE inhibiting peptides in human plasma using high performance liquid chromatography-mass spectrometry. J Chromatogr B Analyt Technol Biomed Life Sci 2006,830:151-157. Peptide separation was performed on an Atlantis Hilic Silica column (2.1 x 150 mm, 3 µm particle size) and a Micromass Quattro-II (Milford MA, USA) with HP1100LC system (Hewlett-Packard, USA). The gradient started at 100% 0.1% trifluoro acetic acid in Milli-Q water and ended at 70% 0.1 % trifluoro acetic acid in acetonitrile. To support the ionization, a 70/30 mixture of propionic acid and propanol-2 was added postcolumn at a flow rate of 50 mL·min-1. All analyses were conducted on an Alliance 2795 HPLC (Waters, Milford MA, USA) combined with a Quattro Premier triple quadrupole mass spectrometer from the same supplier.
An intestinal stability data set consisting of 228 dipeptides was generated based on the results from the simulated digestion experiments. The area under the time - peptide concentration curve was calculated and used for further analysis and modelling. An ACE inhibitory dipeptide database consisting of 228 dipeptides was constructed.
For each peptide the relative stability (in % of initial dipeptide concentration) was plotted against time and the area under the curve (AUC) was calculated.

Stability observed AUC | AUC [units] | intestinal stability (in words) | Compound
240±12 | – | – | NC(=O)C[C@H](N)C(=O)N[C@@H](Cc1ccc(O)cc1)C(=O)O [Asn-Tyr] (H-Asn-Tyr-OH)
– | > 5900 | – | N[C@@H](CC(=O)O)C(=O)N1CCC[C@H]1C(=O)O [DP, Asp-Pro] (H-Asp-Pro-OH)
– | – | high intestinal stability | N[C@@H](CC(=O)O)C(=O)N[C@@H](Cc1c[nH]c2ccccc12)C(=O)O [DW] (H-Asp-Trp-OH)
– | – | high intestinal stability | NCC(=O)N[C@@H](CC(N)=O)C(=O)O [GN] (H-Gly-Asn-OH)
4887±639 | – | most intestinal stable dipeptide | N[C@@H](CO)C(=O)N1CCC[C@H]1C(=O)O [Ser-Pro] (H-Ser-Pro-OH)
4606±129 | – | – | N[C@@H](Cc1c[nH]c2ccccc12)C(=O)N1CCC[C@H]1C(=O)O [Trp-Pro] (H-Trp-Pro-OH)
4187±399 | – | – | N[C@@H](Cc1ccc(O)cc1)C(=O)N1CCC[C@H]1C(=O)O [Tyr-Pro] (H-Tyr-Pro-OH)

Further lines, the compound ahead of its results:

Compound | Stability observed AUC | AUC [units] | intestinal stability (in words)
NC(N)=NCCC[C@H](N)C(=O)N[C@@H](Cc1c[nH]c2ccccc12)C(=O)O [Arg-Trp] (H-Arg-Trp-OH) | 265±10 | – | –
C[C@H](NC(=O)CN)C(=O)O [GA, Gly-Ala] (H-Gly-Ala-OH) | – | > 5900 | –
NCC(=O)N[C@@H](CS)C(=O)O [GC] (H-Gly-Cys-OH) | – | – | high intestinal stability
CC(C)[C@H](NC(=O)CN)C(=O)O [GV, Gly-Val] (H-Gly-Val-OH) | – | > 5900 | –
N=C(N)NCCC[C@H](NC(=O)CN)C(=O)O [Gly-Arg] (H-Gly-Arg-OH) | 4622±1283 | – | –
O=C(O)[C@H](Cc1c[nH]c2ccccc12)NC(=O)[C@@H]1CCCN1 [PW] (H-Pro-Trp-OH) | – | – | high intestinal stability
NC(=O)C[C@H](NC(=O)[C@@H](N)Cc1c[nH]c2ccccc12)C(=O)O [Trp-Asn] (H-Trp-Asn-OH) | 4812±901 | – | –
N[C@@H](Cc1c[nH]c2ccccc12)C(=O)NCC(=O)O [Trp-Gly] (H-Trp-Gly-OH) | 4280±721 | – | –
N[C@@H](Cc1c[nH]c2ccccc12)C(=O)N[C@@H](Cc1c[nH]cn1)C(=O)O [Trp-His] (H-Trp-His-OH) | 2934±800 | – | –
C[C@H](NC(=O)[C@@H](N)Cc1ccc(O)cc1)C(=O)O [Tyr-Ala] | 4593±1930 | – | –
N[C@@H](Cc1ccc(O)cc1)C(=O)NCC(=O)O [Tyr-Gly] | 3384±475 | – | high stability
CC(C)[C@H](N)C(=O)N[C@@H](Cc1ccc(O)cc1)C(=O)O [Val-Tyr] (H-Val-Tyr-OH) | 373±27 | – | –
